For series [1], the target named is benzodiazepine binding site on GABAA receptors (rat cerebral cortex membranes). The series can be described thus: In vitro inhibition of 3H-flunitrazepam (3H-FNM) binding. To be noted: inhibition of specific binding of 3H-FNM (1 nM), cerebral cortex membranes from male Wistar rats, 40 min at 2° C. How it is done:
In Vitro Inhibition of ^3H-flunitrazepam (^3H-FNM) Binding
The GABA recognition site and the benzodiazepine modulatory unit can selectively be labelled with ^3H-flunitrazepam.
Preparations are performed at 0-4° C. unless otherwise indicated. Cerebral cortex from male Wistar rats (150-200 g) is homogenised for 5-10 sec in 20 ml Tris-HCl (30 mM, pH 7.4) using an Ultra-Turrax homogeniser. The suspension is centrifuged at 27,000×g for 15 min and the pellet is washed three times with buffer (centrifuged at 27,000×g for 10 min). The washed pellet is homogenized in 20 ml of buffer and incubated on a water bath (37° C.) for 30 min to remove endogenous GABA and then centrifuged for 10 min at 27,000×g. The pellet is then homogenized in buffer and centrifuged for 10 min at 27,000×g. The final pellet is resuspended in 30 ml buffer and the preparation is frozen and stored at −20° C.
The membrane preparation is thawed and centrifuged at 2° C. for 10 min at 27,000×g. The pellet is washed twice with 20 ml 50 mM Tris-citrate, pH 7.1 using an Ultra-Turrax homogeniser and centrifuged for 10 min at 27,000×g. The final pellet is resuspended in 50 mM Tris-citrate, pH 7.1 (500 ml buffer per g of original tissue), and then used for binding assays. Aliquots of 0.5 ml tissue are added to 25 μl of test solution and 25 μl of ^3H-FNM (1 nM, final concentration), mixed and incubated for 40 min at 2° C. Non-specific binding is determined using Clonazepam (1 μM, final concentration). After incubation the samples are added 5 ml of ice-cold buffer and poured directly onto Whatman GF/C glass fibre filters under suction and immediately washed with 5 ml ice-cold buffer. The amount of radioactivity on the filters is determined by conventional liquid scintillation counting. Specific binding is total binding minus non-specific binding.
25-75% inhibition of specific binding must be obtained, before calculation of an IC50.
The test value will be given as IC50 (the concentration (μM) of the test substance which inhibits the specific binding of ^3H-FNM by 50%).
Co is specific binding in control assays, and […]

Structures are written as SMILES.

For `Cc1noc(-c2cn(-c3cccc(Br)c3)cn2)n1`, the melting point lay in the range of 200.1 to 202.4 °C.

On to `Cc1noc(-c2cn(-c3cccc(-c4ccc(F)nc4)c3)cn2)n1` [2-Fluoro-5-{3-[4-(3-methyl-[1,2,4]oxadiazol-5-yl)-imidazol-1-yl]-phenyl}-pyridine], for which the concentration for half-maximal inhibition (IC50) in series [1] was 60 nM.

On to `Cc1noc(-c2cn(-c3cccc(-c4ccccc4F)c3)cn2)n1` [3-Methyl-5-[1-(2′-fluoro-biphenyl-3-yl)-1H-imidazol-4-yl]-[1,2,4]oxadiazole], for which the IC50 in series [1] was found to be 33 nM.

On to `Cc1noc(-c2cn(-c3cccc(-c4ccccc4OC(F)(F)F)c3)cn2)n1` [3-Methyl-5-[1-(2′-trifluoromethoxy-biphenyl-3-yl)-1H-imidazol-4-yl]-[1,2,4]oxadiazole], for which the melting point lay in the range of 141.6 to 143.9 °C. Further, the IC50 in series [1] is 17 nM.

One may read the melting point as the temperature of the solid-liquid transition. Broadly, the IC50 is the concentration needed to halve the response being measured. Read a high IC50 as weaker potency.

(Values after patent US7858649B2, “Imidazole derivatives and their use for modulating the GABAA receptor complex” (Neurosearch A/S, priority 2005, dated 2010).)
